Where no end group is shown, it is not given here.
Columns and labels:
[1] = target: T1, streptavidin (Streptomyces avidinii, UniProt P22629); assay: biotin inhibition of LHPQF-resin staining by streptavidin-alkaline phosphatase; format: binding
T1 construct: purchased Pierce, Rockford, Ill
Protocol: FIG. 8. […] A: 100 nM; B: 10 nM; C: 1 nM; and D: 0.1 nM biotin. Blank beads (β-Ala-aminocaproic acid-resin) were mixed 1:1 with the LHPQF-resin prior to incubating with streptavidin-alkaline phosphatase to serve as an internal negative control.
The LHPQF-resin was then mixed with streptavidin-alkaline phosphatase in the presence of varying concentration of biotin. […] The inhibition study establishes that the HPQ consensus sequence binds to the biotin-binding site of streptavidin.

[2] = UV/VIS irradiation cleavage of ONb linker peptides, HPLC analysis; format: physicochemical; settings: in water
Protocol: Each peptide was irradiated for 1 and 3 hours with ultraviolet (UV) and visible (VIS) light in 0.3 ml of water or 3/7 mixture of chloroethanol:dichloromethane. A total of 16+16 experiments were run and assayed.
After exposure the supernatant was filtered off, lyophilized and re-dissolved to equal volumes of MeOH (0.3 ml). The products were analyzed on the HPLC.

[3] = system: anti-v-mos; settings: known property of the commercial antibody; cited from earlier work
[4] = system: anti-v-mos monoclonal antibody; assay: bead staining with anti-v-mos monoclonal antibody; format: binding, mouse; settings: antibody 1 ug/ml; ABTS substrate with H2O2, 15 minutes
Protocol: The long v-mos beads were mixed with a thousand fold excess of the short v-mos beads. Two milliliters of the purified anti-v-mos monoclonal antibody (1 μg/ml) in PBS with 0.1% polyoxyethylenesorbitan monolaurate (TWEEN 20®) was added to the mixture of long and short v-mos beads and incubated at room temperature for one hour with gentle mixing. The beads were then washed for one hour with gentle mixing. The beads were then washed on a small polypropylene disposable column (obtained from Isolab) where the beads were retained by the frit. The beads were then mixed with 2 ml of a secondary antibody at 1:2000 dilution for one hour. After washing, the beads were poured into a polystyrene petri dish and allowed to settle. […]
The beads were washed on a small polypropylene disposable column (obtained from Isolab) which retained the beads on a frit. […] The v-mos beads were readily distinguished.
Approximately 230,000 beads were screened with an anti-v-mos alkaline phosphatase conjugate. […] Twenty-four of these beads were physically selected out and the amino acid sequence of eleven of them was determined. […]

[5] = peptide-bead reduction of nitro blue tetrazolium without exogenous enzyme; format: biochemical; settings: absence of exogenous enzyme
Text: The peptide library was exposed to the chromogenic substrate nitro blue tetrazolium (NBT) chloride in the absence of exogeneous enzyme under conditions conducive to product formation, and positive reacting beads were identified. These beads were selected and sequenced.

[6] = system: anti-β-endorphin MAb; assay: bead library screening with biotinylated anti-β-endorphin MAb and streptavidin-alkaline phosphatase; format: binding; settings: recycled pentapeptide library, 16 hours
Protocol: Prior to using the same random peptide library to screen with anti-β-endorphin MAb, all the blue beads that had stained for streptavidin-alkaline phosphatase alone were removed. The remaining beads were then treated with 8M guanidine hydrochloride to remove any bound protein. This recycled library was then mixed with biotinylated anti-β-endorphin MAb (anti-β-endorphin, clone 3-E7, was obtained commercially from Boehringer Mannheim, Indianapolis, Ind.) for 16 hours. After extensive washing, a secondary step with streptavidin-alkaline phosphatase was used to trigger the staining reaction for the ELISA. […] Peptide analogues with various carboxyl terminus of these ligand leads were synthesized and their affinity (Ki) was determined using ^3 H!Leu-enkaphalin (New England Nuclear, Boston, Mass.) as the labelled ligand and the unlabelled peptides as the competing ligand (anti-β-endorphin assay, Section 10.1.2, supra).

T1 sequence (P22629 25-183, species assumed): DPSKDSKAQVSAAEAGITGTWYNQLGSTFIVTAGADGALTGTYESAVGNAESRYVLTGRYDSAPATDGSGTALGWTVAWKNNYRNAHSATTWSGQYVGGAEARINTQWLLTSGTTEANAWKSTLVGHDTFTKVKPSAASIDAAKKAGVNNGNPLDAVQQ

## O=C(O)CCCC[C@@H]1SC[C@@H]2NC(=O)N[C@@H]21 [biotin]
[1]; FIG. 8, 100, 10, 1 and 0.1 nM biotin
  effect on the staining of LHPQF-resin mimotope beads by streptavidin-alkaline phosphatase: concentration-dependent inhibitory effect
[1]; biotin at 0.1 nM
  staining of the LHPQF-resin: no effect
[1]; biotin at 1.0 nM
  staining of the LHPQF-resin: partially inhibited
[1]; biotin at 10 nM
  staining of the LHPQF-resin: partially inhibited
[1]; biotin at 100 nM
  staining of the LHPQF-resin: completely blocked

## Fmoc-Trp-Tyr(OBu^t)-Phe-ONb-βAla-ACA-EDA-PepSyn K (WYFX; Fmoc, OBut, ONb-βAla-ACA-EDA-PepSyn K resin linkage) [peptide i]
[2]
  cleavage products: cleaved to a single product

## GSVYKA [short v-mos peptide]
[3]
  affinity of anti-v-mos antibody: negligible affinity

## Gly-Phe-Gly-Ser-Val-Tyr-aminocaproic acid-β-Ala-resin [PAM resin/v-mos peptide beads]
[4]
  bead color after anti-v-mos antibody and labelled secondary antibody: turned dark green

## PNNNH (also: bead-bound) [PNNNH-bead]
[5]
  reduction of NBT to dark blue diformazan: capable of reducing NBT to a dark blue diformazan pigment

## YGGFA (not fully specified) [tested with carboxyl terminus OH, NH2, βA-OH, βA-NH2]
[6]
  identification as ligand in anti-β-endorphin MAb bead screening: identified

## YGGFQ (not fully specified) [tested with carboxyl terminus OH, NH2, βA-OH, βA-NH2]
[6]
  identification as ligand in anti-β-endorphin MAb bead screening: identified

## YGGFT (not fully specified) [tested with carboxyl terminus OH, NH2, βA-OH, βA-NH2]
[6]
  identification as ligand in anti-β-endorphin MAb bead screening: identified

## YGGLQ (not fully specified) [tested with carboxyl terminus OH, NH2, βA-OH, βA-NH2]
[6]
  identification as ligand in anti-β-endorphin MAb bead screening: identified

## YGGLS (not fully specified) [tested with carboxyl terminus OH, NH2, βA-OH, βA-NH2]
[6]
  identification as ligand in anti-β-endorphin MAb bead screening: identified

## YGGMV (not fully specified) [tested with carboxyl terminus OH, NH2, βA-OH, βA-NH2]
[6]
  identification as ligand in anti-β-endorphin MAb bead screening: identified

Reference: US5510240A, “Method of screening a peptide library” (The Arizona Board of Regents, priority 1993, dated 1996)
